# Assay results published in patent US20110281812A1, “Compounds” (priority 2009, published 2011).
# Tested on: IL-6 production in LPS-stimulated murine spleenocytes
# Test: Inhibition of IL-6 production in LPS-stimulated murine spleenocytes in vitro
# Type: cell-based
# Conditions: Mus musculus, 50 μM concentration of the compound, read-out: inhibition of interleukin-6 (IL-6) production
# Method: Test and reference substances used in an in vitro assays were dissolved in dimethyl sulfoxide (DMSO) (Sigma Chemical Co., USA) at a concentration of 50 mM and were further diluted to test concentrations in appropriate cell culture medium.
# After cervical dislocation, mouse spleens were removed using sterile dissection tools. Spleens were transferred to a pre-wetted cell strainer in a 50 mL sterile conical tube and cell suspension was made by gentle puddle. Cells were centrifuged (20 min, 300×g) and resuspended in 2 mL of sterile phosphate buffered saline (PBS) (Sigma Chemical Co., USA). Red blood cells were lysed by addition of 3 mL of sterile water and occasionally gentle shaking for 1 minute. Afterwards, the tube was filled to 40 mL with DMEM medium and centrifuged (20 min, 300×g). Cells were resuspended in DMEM supplemented with 1% FBS and seeded in a 24-well plate, 1×10^6 cells per mL medium.
# Final concentrations of 50 μM, 25 μM, 12.5 μM, 6.3 μM and 3.1 μM of test compounds were prepared by diluting a 50 mM DMSO stock in Dulbecco's modified Eagle medium (DMEM) (Gibco, USA) supplemented with 1% heat inactivated fetal bovine serum (FBS) (BioWest, Ringmer, United Kingdom).
# Cells were pre-incubated with the test compounds for 3 h at 37° C., in an atmosphere of 5% CO2 and 90% humidity. Afterwards, cells were stimulated with 1 μg/mL lipopolysaccharide (LPS, E. coli 0111:B4, Sigma Chemical Co., USA) and incubated overnight. Concentration of IL-6 was determined in cell supernatants by sandwich ELISA using capture and detection antibodies (R&D Systems, USA) according to the manufacturer's recommendations.
# Inhibition (as percentage) was calculated using the following formula:
# % inhibition=[1−(concentration of IL-6 in sample−concentration of IL-6 in negative control)/(concentration of IL-6 in positive control−concentration of IL-6 in negative control)]×100.
# The positive control refers to LPS-stimulated samples that were not preincubated with the compounds.
# The negative control refers to unstimulated and untreated samples.
row,SMILES,inhibition at 50 µM
1,"CC[C@H]1OC(=O)[C@H](C)[C@@H](O[C@H]2C[C@@](C)(OC)[C@@H](O)[C@H](C)O2)[C@H](C)[C@@H](O[C@@H]2O[C@H](C)C[C@H](N(C)C)[C@H]2OCCCNC(C)=O)[C@](C)(O)C[C@@H](C)CN(C)[C@H](C)[C@@H](O)[C@]1(C)O [Example 1, 2′-O[3-(Acetylamino)propyl]-9-deoxo-9a-methyl-9a-aza-9a-homoerythromycin A]",> 40%
2,"CC[C@H]1OC(=O)[C@H](C)[C@@H](O[C@H]2C[C@@](C)(OC)[C@@H](O)[C@H](C)O2)[C@H](C)[C@@H](O[C@@H]2O[C@H](C)C[C@H](N(C)C)[C@H]2OCCCNC(=O)C(C)C)[C@](C)(O)C[C@@H](C)CN(C)[C@H](C)[C@@H](O)[C@]1(C)O [Example 3, 2′-O-{3-[(2-Methylpropanoyl)amino]propyl}-9-deoxo-9a-methyl-9a-aza-9a-homoerythromycin A]",> 40%
3,"CC[C@H]1OC(=O)[C@H](C)[C@@H](O[C@H]2C[C@@](C)(OC)[C@@H](O)[C@H](C)O2)[C@H](C)[C@@H](O[C@@H]2O[C@H](C)C[C@H](N(C)C)[C@H]2OCCCNC(=O)C(C)(C)C)[C@](C)(O)C[C@@H](C)CN(C)[C@H](C)[C@@H](O)[C@]1(C)O [Example 4, 2′-O-{3-[(2,2-Dimethylpropanoyl)amino]propyl}-9-deoxo-9a-methyl-9a-aza-9a-homoerythromycin A]",> 40%
4,"CC[C@H]1OC(=O)[C@H](C)[C@@H](O[C@H]2C[C@@](C)(OC)[C@@H](O)[C@H](C)O2)[C@H](C)[C@@H](O[C@@H]2O[C@H](C)C[C@H](N(C)C)[C@H]2OCCCNC(=O)CN(CC)CC)[C@](C)(O)C[C@@H](C)CN(C)[C@H](C)[C@@H](O)[C@]1(C)O [Example 5, 2′-O-{3-[(N,N-Diethylglycyl)amino]propyl}-9-deoxo-9a-methyl-9a-aza-9a-homoerythromycin A]",> 40%
5,"CC[C@H]1OC(=O)[C@H](C)[C@@H](O[C@H]2C[C@@](C)(OC)[C@@H](O)[C@H](C)O2)[C@H](C)[C@@H](O[C@@H]2O[C@H](C)C[C@H](N(C)C)[C@H]2OCCCNC(=O)c2ccncc2)[C@](C)(O)C[C@@H](C)CN(C)[C@H](C)[C@@H](O)[C@]1(C)O [Example 6, 2′-O-{3-[(4-Pyridinylcarbonyl)amino]propyl}-9-deoxo-9a-methyl-9a-aza-9a-homoerythromycin A]",> 40%
6,"CC[C@H]1OC(=O)[C@H](C)[C@@H](O[C@H]2C[C@@](C)(OC)[C@@H](O)[C@H](C)O2)[C@H](C)[C@@H](O[C@@H]2O[C@H](C)C[C@H](N(C)C)[C@H]2OCCCNC(=O)[C@@H](N)Cc2ccccc2)[C@](C)(O)C[C@@H](C)CN(C)[C@H](C)[C@@H](O)[C@]1(C)O [Example 10, 2′-O-[3-(L-phenylalanylamino)propyl]-9-deoxo-9a-methyl-9a-aza-9a-homoerythromycin A]",> 40%
7,"CC[C@H](C)[C@H](N)C(=O)NCCCO[C@H]1[C@H](O[C@@H]2[C@@H](C)[C@H](O[C@H]3C[C@@](C)(OC)[C@@H](O)[C@H](C)O3)[C@@H](C)C(=O)O[C@H](CC)[C@@](C)(O)[C@H](O)[C@@H](C)N(C)C[C@H](C)C[C@@]2(C)O)O[C@H](C)C[C@@H]1N(C)C [Example 11, 2′-O-[3-(L-isoleucylamino)propyl]-9-deoxo-9a-methyl-9a-aza-9a-homoerythromycin A]",> 40%
8,"CC[C@H]1OC(=O)[C@H](C)[C@@H](O[C@H]2C[C@@](C)(OC)[C@@H](O)[C@H](C)O2)[C@H](C)[C@@H](O[C@@H]2O[C@H](C)C[C@H](N(C)C)[C@H]2OCCCNC(=O)[C@@H](N)CCSC)[C@](C)(O)C[C@@H](C)CN(C)[C@H](C)[C@@H](O)[C@]1(C)O [Example 12, 2′-O-[3-(L-methionylamino)propyl]-9-deoxo-9a-methyl-9a-aza-9a-homoerythromycin A]",> 40%
9,"CC[C@H]1OC(=O)[C@H](C)[C@@H](O[C@H]2C[C@@](C)(OC)[C@@H](O)[C@H](C)O2)[C@H](C)[C@@H](O[C@@H]2O[C@H](C)C[C@H](N(C)C)[C@H]2OCCCNC(=O)c2cnccn2)[C@](C)(O)C[C@@H](C)CN(C)[C@H](C)[C@@H](O)[C@]1(C)O [Example 23, 2′-O-{3-[(2-Pyrazinylcarbonyl)amino]propyl}-9-deoxo-9a-methyl-9a-aza-9a-homoerythromycin A]",> 40%
10,"CC[C@H]1OC(=O)[C@H](C)[C@@H](O[C@H]2C[C@@](C)(OC)[C@@H](O)[C@H](C)O2)[C@H](C)[C@@H](O[C@@H]2O[C@H](C)C[C@H](N(C)C)[C@H]2OCCCNC(=O)c2cc(C)oc2C)[C@](C)(O)C[C@@H](C)CN(C)[C@H](C)[C@@H](O)[C@]1(C)O [Example 24, 2′-O-(3-{[(2,5-Dimethyl-3-furanyl)carbonyl]amino}propyl)-9-deoxo-9a-methyl-9a-aza-9a-homoerythromycin A]",> 40%
11,"CC[C@H]1OC(=O)[C@H](C)[C@@H](O[C@H]2C[C@@](C)(OC)[C@@H](O)[C@H](C)O2)[C@H](C)[C@@H](O[C@@H]2O[C@H](C)C[C@H](N(C)C)[C@H]2OCCCNC(=O)c2cc(C)n(C)c2C)[C@](C)(O)C[C@@H](C)CN(C)[C@H](C)[C@@H](O)[C@]1(C)O [Example 26, 2′-O-(3-{[(1,2,5-Trimethyl-1H-pyrrol-3-yl)carbonyl]amino}propyl)-9-deoxo-9a-methyl-9a-aza-9a-homoerythromycin A]",> 40%
12,"CC[C@H]1OC(=O)[C@H](C)[C@@H](O[C@H]2C[C@@](C)(OC)[C@@H](O)[C@H](C)O2)[C@H](C)[C@@H](O[C@@H]2O[C@H](C)C[C@H](N(C)C)[C@H]2OCCCNC(=O)c2cncn2C)[C@](C)(O)C[C@@H](C)CN(C)[C@H](C)[C@@H](O)[C@]1(C)O [Example 27, 2′-O-(3-{[(1-Methyl-1H-imidazol-5-yl)carbonyl]amino}propyl)-9-deoxo-9a-methyl-9a-aza-9a-homoerythromycin A]",> 40%
13,"CC[C@H]1OC(=O)[C@H](C)[C@@H](O[C@H]2C[C@@](C)(OC)[C@@H](O)[C@H](C)O2)[C@H](C)[C@@H](O[C@@H]2O[C@H](C)C[C@H](N(C)C)[C@H]2OCCCNC(=O)c2cn(C)nc2C(F)(F)F)[C@](C)(O)C[C@@H](C)CN(C)[C@H](C)[C@@H](O)[C@]1(C)O [Example 28, 2′-O-[3-({[1-Methyl-3-(trifluoromethyl)-1H-pyrazol-4-yl]carbonyl}amino)propyl]-9-deoxo-9a-methyl-9a-aza-9a-homoerythromycin A]",> 40%
14,"CC[C@H]1OC(=O)[C@H](C)[C@@H](O[C@H]2C[C@@](C)(OC)[C@@H](O)[C@H](C)O2)[C@H](C)[C@@H](O[C@@H]2O[C@H](C)C[C@H](N(C)C)[C@H]2OCCCNC(=O)c2ccc(Cl)cc2)[C@](C)(O)C[C@@H](C)CN(C)[C@H](C)[C@@H](O)[C@]1(C)O [Example 29, 2′-O-(3-{[(4-Chlorophenyl)carbonyl]amino}propyl)-9-deoxo-9a-methyl-9a-aza-9a-homoerythromycin A]",> 40%
15,"CC[C@H]1OC(=O)[C@H](C)[C@@H](O[C@H]2C[C@@](C)(OC)[C@@H](O)[C@H](C)O2)[C@H](C)[C@@H](O[C@@H]2O[C@H](C)C[C@H](N(C)C)[C@H]2OCCCNC(=O)c2ccccn2)[C@](C)(O)C[C@@H](C)CN(C)[C@H](C)[C@@H](O)[C@]1(C)O [Example 31, 2′-O-{3-[(2-Pyridinylcarbonyl)amino]propyl}-9-deoxo-9a-methyl-9a-aza-9a-homoerythromycin A]",> 40%
16,"CC[C@H]1OC(=O)[C@H](C)[C@@H](O[C@H]2C[C@@](C)(OC)[C@@H](O)[C@H](C)O2)[C@H](C)[C@@H](O[C@@H]2O[C@H](C)C[C@H](N(C)C)[C@H]2OCCCNC(=O)c2cc(O)ccc2O)[C@](C)(O)C[C@@H](C)CN(C)[C@H](C)[C@@H](O)[C@]1(C)O [Example 32, 2′-O-{3-[(2,5-Dihydroxyphenylcarbonyl)amino]propyl}-9-deoxo-9a-methyl-9a-aza-9a-homoerythromycin A]",> 40%
17,"CC[C@H]1OC(=O)[C@H](C)[C@@H](O[C@H]2C[C@@](C)(OC)[C@@H](O)[C@H](C)O2)[C@H](C)[C@@H](O[C@@H]2O[C@H](C)C[C@H](N(C)C)[C@H]2OCCCNC(=O)c2ccc(N)cc2O)[C@](C)(O)C[C@@H](C)CN(C)[C@H](C)[C@@H](O)[C@]1(C)O [Example 33, 2′-O-(3-{[(4-Amino-2-hydroxyphenyl)carbonyl]amino}propyl)-9-deoxo-9a-methyl-9a-aza-9a-homoerythromycin A]",> 40%
18,"CC[C@H]1OC(=O)[C@H](C)[C@@H](O[C@H]2C[C@@](C)(OC)[C@@H](O)[C@H](C)O2)[C@H](C)[C@@H](O[C@@H]2O[C@H](C)C[C@H](N(C)C)[C@H]2OCCCNC(=O)c2cccnc2Cl)[C@](C)(O)C[C@@H](C)CN(C)[C@H](C)[C@@H](O)[C@]1(C)O [Example 34, 2′-O-(3-{[(2-Chloro-3-pyridinyl)carbonyl]amino}propyl)-9-deoxo-9a-methyl-9a-aza-9a-homoerythromycin A]",> 40%
